The values that follow come from article PMC6007963, “An ^18F-Labeled Poly(ADP-ribose) Polymerase Positron Emission Tomography Imaging Agent” (Journal of Medicinal Chemistry, 2018).

SMILES strings stand for the structures. Read-outs that look alike come from different tables or passages of the source. Where only a bound is given, the exact number is not on record here.

Usually chromatographic logP stands for a lipophilicity value derived from retention on a column. In general, IC50 refers to the concentration at which inhibition is half-maximal.

Details of data set [1]: method as in PMID 26493053. The conditions noted are these: at 120 min; cited from earlier work.
Data set [2] concerns U87MG-Luc2 human glioblastoma tumor xenografts. The data set is described as follows: ex vivo biodistribution in subcutaneous U87MG-Luc2 glioblastoma bearing nude mice. Further details: species or system mouse. Here is the method:
Following successful optimization of the radiochemistry, the behavior of [^18F]20 was investigated in vivo in mice bearing subcutaneous U87MG-Luc2 human glioblastoma tumor xenografts using ex vivo biodistribution and PET–MR imaging techniques. Ex vivo biodistribution of [^18F]20 was established at 30, 60, and 120 min after intravenous radiotracer administration, and PET data were acquired by performing a 45 min dynamic scan. […] This is in contrast to observations made by Carney et al., who reported <2%ID/g of bone of [^18F]8 at 120 min.[34] The high bone uptake seen with [^18F]20 could be explained by in vivo defluorination and subsequent radiofluoride accumulation in bone tissue.[35] Despite this, apparent radiotracer tumor uptake was identified in both biodistribution and PET–MR imaging experiments (Figures 3a,c), whereas in the case of the former, the mean ratio of %ID/g of glioblastoma tumor to muscle increased from 1.9 ± 0.5 (n = 4) to 3.6 ± 0.5 (n = 4) between the 30 and 120 min time points.
(§1) U87MG-Luc2 glioblastoma cell culture and implantation procedures were performed as reported previously.[19] Briefly, U87MG-Luc2 cells were purchased commercially from ATCC and cultured in minimum essential media that has been supplemented with 10% w/v fetal calf serum and 2 mM L-glutamine at 37 °C and 5% v/v CO2. Unconscious female CD1 nude mice (6–11 week old; purchased from Charles River Laboratories) had 5 × 10^6 U87MG-Luc2 cells injected subcutaneously into the right flank. The resulting tumor xenografts were measured and monitored visually every 3 days, and tumor-bearing animals were used for in vivo studies 28–30 days post-implantation.
(§2) Subcutaneous tumor bearing mice were administered 1.8–2.6 MBq of [^18F]20 in 0.11–0.21 mL of 5% v/v DMSO in 0.9% saline via bolus tail-vein injections. The remainder of the experiment was conducted as described previously.[19]

For data set [3], the target named is T1, PARP in U87MG-Luc2 human glioblastoma xenografts (Homo sapiens, UniProt P09874).
T1 construct: from tissue; host or cells: subcutaneous U87MG-Luc2 human glioblastoma xenograft in female CD1 nude mice
The data set can be described thus: ex vivo biodistribution with preblockade by nonradioactive 1. It counts as in vivo, mouse. Here is the method:
To establish the specificity of [^18F]20 for PARP in bone and tumor tissue, further biodistribution studies were performed on subcutaneous U87MG-Luc2 glioblastoma bearing mice that had PARP binding sites blocked by pretreatment with nonradioactive compound 1 at a dose of 50 mg/kg 20 min prior to [^18F]20 administration. […] This supports the earlier proposed possibility of in vivo [^18F]20 defluorination, leading to free radiofluoride accumulation in the bone.
as §1, §2

Data set [4] is described as follows: lipophilicity (log Poct) by C-18 reverse-phase HPLC. It counts as physicochemical. As to conditions: C-18 reverse-phase HPLC column.
The nature of data set [5]: intrinsic clearance in human liver microsomes. It is filed as in vitro ADME. The conditions noted are these: for microsomal CLint: human, liver microsomes. The text has this: (§3) However, these were still within the optimal range for a nuclear imaging agent. […] Collectively, the optimal physiochemical properties and low nanomolar PARP cell-free and cellular IC50 values supported further investigation of 20 as a potential radiotracer for PARP. In the body, radiotracers can be exposed to a number of metabolic pathways, including blood plasma hydrolysis and liver functionalization or conjugation reactions that can have a significant effect on the kinetic properties of the tracer and, subsequently its usefulness in nuclear imaging. With this in mind, the in vitro plasma and liver microsome stability of lead candidate 20 were established by incubating the compound in mouse plasma proteins and human liver microsome enzymes, respectively, using previously described methodologies.[19]
Background: Liver microsomes are vesicles of endoplasmic reticulum, rich in cytochrome P450 enzymes.

Data set [6] concerns the target human serum albumin (Homo sapiens, UniProt P02768). The data set can be described thus: percentage plasma protein binding by human serum albumin coated HPLC column. As to conditions: for fraction unbound: human, read-out: %PPB (converted). It counts as in vitro ADME.
Data set [7] deals with PARP-1 (Homo sapiens, UniProt P09874). The data set is described as follows: cell-free PARP-1 IC50 assay (colorimetric dose-response).
A short description of data set [8]: mouse plasma stability. It counts as in vitro ADME.
Description: as §3

Where [9] appears, read: experiment 1, read-out: Clint, experiment 1.
[10] abbreviates: experiment 2, read-out: Clint, experiment 2.

Chain of human serum albumin (P02768 25-609): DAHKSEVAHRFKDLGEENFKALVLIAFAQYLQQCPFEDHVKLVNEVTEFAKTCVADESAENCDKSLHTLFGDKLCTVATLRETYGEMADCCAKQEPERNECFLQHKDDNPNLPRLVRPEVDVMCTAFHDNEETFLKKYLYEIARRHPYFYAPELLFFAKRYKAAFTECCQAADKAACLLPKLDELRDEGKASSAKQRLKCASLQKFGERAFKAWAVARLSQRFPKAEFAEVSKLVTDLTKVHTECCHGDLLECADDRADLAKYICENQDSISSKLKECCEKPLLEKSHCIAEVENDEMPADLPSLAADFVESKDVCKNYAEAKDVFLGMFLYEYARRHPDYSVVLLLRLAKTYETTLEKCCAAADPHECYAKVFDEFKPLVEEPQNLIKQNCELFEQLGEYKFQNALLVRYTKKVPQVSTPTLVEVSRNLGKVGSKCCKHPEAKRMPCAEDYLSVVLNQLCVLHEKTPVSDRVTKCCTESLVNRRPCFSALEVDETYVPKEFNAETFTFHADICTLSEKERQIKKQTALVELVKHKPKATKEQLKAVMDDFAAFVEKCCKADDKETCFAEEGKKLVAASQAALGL
Chain of PARP-1 (P09874 whole entry, species assumed): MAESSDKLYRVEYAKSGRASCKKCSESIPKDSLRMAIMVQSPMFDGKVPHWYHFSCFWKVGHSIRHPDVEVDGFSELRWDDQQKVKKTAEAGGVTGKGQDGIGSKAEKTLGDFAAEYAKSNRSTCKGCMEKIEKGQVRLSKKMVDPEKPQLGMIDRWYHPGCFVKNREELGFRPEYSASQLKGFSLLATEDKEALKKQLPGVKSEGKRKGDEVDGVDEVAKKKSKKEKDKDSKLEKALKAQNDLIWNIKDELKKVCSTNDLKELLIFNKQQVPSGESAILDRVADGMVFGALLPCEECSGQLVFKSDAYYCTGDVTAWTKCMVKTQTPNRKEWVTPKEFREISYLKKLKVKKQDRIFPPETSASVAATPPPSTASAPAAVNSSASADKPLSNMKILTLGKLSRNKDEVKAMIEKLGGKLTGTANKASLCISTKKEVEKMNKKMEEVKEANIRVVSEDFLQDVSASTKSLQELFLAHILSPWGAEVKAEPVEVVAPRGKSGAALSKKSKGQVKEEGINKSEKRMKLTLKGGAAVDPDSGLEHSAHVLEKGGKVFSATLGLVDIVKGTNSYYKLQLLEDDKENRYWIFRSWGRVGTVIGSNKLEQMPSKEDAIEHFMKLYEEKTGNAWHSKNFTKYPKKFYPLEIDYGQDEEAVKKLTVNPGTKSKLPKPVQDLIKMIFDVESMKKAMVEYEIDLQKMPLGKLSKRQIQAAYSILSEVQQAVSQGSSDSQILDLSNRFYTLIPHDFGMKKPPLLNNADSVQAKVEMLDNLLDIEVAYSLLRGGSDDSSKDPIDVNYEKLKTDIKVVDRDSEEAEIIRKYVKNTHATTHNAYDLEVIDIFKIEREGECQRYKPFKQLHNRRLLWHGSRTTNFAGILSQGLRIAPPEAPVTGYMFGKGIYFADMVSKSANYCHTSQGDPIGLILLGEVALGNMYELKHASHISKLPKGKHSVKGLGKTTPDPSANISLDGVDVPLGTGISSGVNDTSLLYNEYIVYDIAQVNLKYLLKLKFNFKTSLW
T1 sequence (P09874 whole entry): as the sequence (P09874 whole entry, species assumed) above

As for `O=C(c1ccc([18F])cc1)N1CCN(C(=O)c2cc(Cc3n[nH]c(=O)c4ccccc34)ccc2F)CC1` [[^18F]8], the “%ID/g of bone” value in data set [1] is listed as under 2 %ID/g.

With `O=C(c1ccc(C[18F])cc1)N1CCN(C(=O)c2cc(Cc3n[nH]c(=O)c4ccccc34)ccc2F)CC1` [[^18F]20], the “mean ratio of %ID/g of glioblastoma tumor to muscle, 30 min” value in data set [2] (30 min after intravenous injection, n = 4) stood at 1.9 ± 0.5. The “mean ratio of %ID/g of glioblastoma tumor to muscle, 120 min” value in data set [2] (120 min after intravenous injection, n = 4) is reported as 3.6 ± 0.5. The “mean percentage of injected dose per gram (%ID/g) of femur tissue” value in data set [2] (across 30, 60 and 120 min after intravenous tracer administration) is given as over 8.5%. For the same molecule, the “ratio of %ID/g of tumor to muscle, preblockade using 1” value in data set [3] (60 min after [18F]20 administration, 50 mg/kg of 1 given 20 min prior, P < 0.05 vs vehicle) came out at 1.07 ± 0.15. For the same molecule, the “ratio of %ID/g of tumor to muscle, vehicle-pretreated mice” value in data set [3] (60 min after [18F]20 administration, vehicle pretreatment) amounted to 1.79 ± 0.39. Besides, the “uptake in bone tissue in presence of excess nonradioactive 1” value in data set [3] (60 min after radioligand administration, 50 mg/kg of 1 pretreatment) is “not influenced”.

On to `O=C(c1cc(Cc2n[nH]c(=O)c3ccccc23)ccc1F)N1CCN(C(=O)C2CC2)CC1` [compound 1, olaparib, reference compound], for which, in data set [4], the chromatographic logP was 1.95. The microsomal CLint in data set [5] (setting [9]) came out at 23 µL/min/mg; in data set [5] (setting [10]), 34 µL/min/mg. Besides, the “%PPB” value in data set [6] was found to be 75.9%.

Molecule `O=C(c1ccc(F)cc1)N1CCN(C(=O)c2cc(Cc3n[nH]c(=O)c4ccccc34)ccc2F)CC1` [compound 8, 4-[3′-[4″-(4‴-Fluorobenzoyl)piperazine-1″-carbonyl]-4′-fluorobenzyl]-2H-phthalazin-1-one] displayed a chromatographic logP in data set [4] of 2.51. The fraction unbound in data set [6] is 0.141.

Regarding `O=C(c1ccccc1F)N1CCN(C(=O)c2cc(Cc3n[nH]c(=O)c4ccccc34)ccc2F)CC1` [compound 9, 4-[3′-[4″-(2‴-Fluorobenzoyl)piperazine-1″-carbonyl]-4′-fluorobenzyl]-2H-phthalazin-1-one], inhibition in data set [7] was half-maximal at 3.6 nM (IC50). The molecule also gave a chromatographic logP in data set [4] of 2.46. For the same molecule, the fraction unbound in data set [6] is 0.136.

The molecule `Cc1cc(F)ccc1C(=O)N1CCN(C(=O)c2cc(Cc3n[nH]c(=O)c4ccccc34)ccc2F)CC1` [compound 10, 4-[3′-[4″-(4‴-Fluoro-2‴-methylbenzoyl)piperazine-1″-carbonyl]-4′-fluorobenzyl]-2H-phthalazin-1-one] yielded an IC50 in data set [7] of 2.9 nM. The same molecule gave a chromatographic logP in data set [4] of 2.66. Further, the fraction unbound in data set [6] is 0.139.

`O=C(Cc1ccc(F)cc1)N1CCN(C(=O)c2cc(Cc3n[nH]c(=O)c4ccccc34)ccc2F)CC1` [compound 11, 4-[3′-[4″-[(4‴-Fluorophenyl)acetyl]piperazine-1″-carbonyl]-4′-fluorobenzyl]-2H-phthalazin-1-one] returned a 50% inhibitory concentration (IC50) in data set [7] of 1.3 nM. The chromatographic logP in data set [4] was found to be 2.67. Moreover, the fraction unbound in data set [6] is 0.101.

On to `O=C(CCC(=O)N1CCN(C(=O)c2cc(Cc3n[nH]c(=O)c4ccccc34)ccc2F)CC1)c1ccc(F)cc1` [compound 12, 4-[3′-[4′′′′′-[(4‴-Fluorophenyl)butane-1′′′′,4′′′′-dione]-piperazine-1‴-carbonyl]4″-fluorobenzyl]-2H-phthalazin-1-one], for which, in data set [7], half-maximal inhibition (IC50) required 4.1 nM. Further, the chromatographic logP in data set [4] worked out at 2.81. The fraction unbound in data set [6] was 0.094.

`O=C(c1cc(Cc2n[nH]c(=O)c3ccccc23)ccc1F)N1CCN(Cc2ccc(F)cc2)CC1` [compound 13, 4-[3′-[4″-(4‴-Fluorobenzyl)piperazine-1″-carbonyl]-4′-fluorobenzyl]-2H-phthalazin-1-one] showed a concentration for half-maximal inhibition (IC50) in data set [7] of 11.2 nM. The chromatographic logP in data set [4] was 3.14. Also, the fraction unbound in data set [6] was 0.053.

Consider `O=C(c1ccc(CF)cc1)N1CCN(C(=O)c2cc(Cc3n[nH]c(=O)c4ccccc34)ccc2F)CC1` [compound 20], for which inhibition in data set [7] was half-maximal at 2 nM (IC50). The “cell-free IC50 fold less than that of 1” value in data set [7] (compared with 1) came to 6 fold. The “cell-free IC50 fold less than that of 8” value in data set [7] (compared with 8) amounted to 3 fold. Moreover, the “stability in mouse plasma” value in data set [8] (20 h incubation in mouse plasma) is “negligible decomposition”. In addition, in data set [8] (mean percentage of parent compound remaining after 20 h incubation in mouse plasma), the “plasma stability, 20 h” value worked out at 95%. The “plasma stability, 0 h” value in data set [8] (mean percentage of parent compound remaining, mouse plasma, 0 h) turned out to be 93%. The molecule also yielded a chromatographic logP in data set [4] of 2.51. Also, in data set [5] (compared with 1), the “intrinsic clearance fold greater in comparison to 1” value is reported as “approximately 3 fold”. Besides, the microsomal CLint stood at 74 µL/min/mg in data set [5] (setting [9]) and 90 µL/min/mg in data set [5] (setting [10]). Also, the fraction unbound in data set [6] is 0.107.
